Source: paper PMC2912373, “Low-Density Lipoprotein Receptor-Related Protein 1 (LRP1) Mediates Neuronal Aβ42 Uptake and Lysosomal Trafficking” (PLoS ONE, 2010)

System: N2a-mLRP4-Tless cells
Test: FAM-Aβ42 uptake in LRP1 endocytosis-deficient cells, FACS
Type: cell-based, mouse
Details: 500 nM, 48 h, pronase-treated and untreated cells
Text: To determine whether the endocytic function of LRP1 is required for Aβ42 internalization and accumulation, we first analyzed the effect of clathrin knockdown on the uptake of FAM-Aβ42 in N2a-mLRP4 cells. We decreased the expression of clathrin heavy chain by lentiviral-mediated delivery of small hairpin interfering RNA (shRNA) in N2a-mLRP4 cells and analyzed cell surface levels of mLRP4 by FACS. Lentiviral-mediated knockdown of clathrin heavy chain substantially decreases the protein levels of clathrin heavy chain and evokes a twofold-increase in the levels of cell surface mLRP4 in N2a cells (Fig. 4A), consistent with an impairment of clathrin-mediated endocytosis of this LRP1 minireceptor. […] As a control for specificity, we analyzed the uptake of a FAM-Aβ42 peptide that contained the same amino acid composition but in a scrambled sequence. […] To further confirm this, we specifically targeted the endocytic function of mLRP4 and analyzed the internalization of FAM-Aβ42 in LRP1 endocytosis-deficient cells. […]
Figure 4 LRP1 endocytosis is required for Aβ42 uptake and accumulation in N2a cells. […] The levels of cell surface and total pools of mLRP4 were determined by flow cytometric analyses with anti-HA antibody in non-permeabilized and saponin-treated cells, respectively. The surface-to-total ratio were calculated and plotted as fold-change to control-infected cells. […]

Q: How did the “FAM-Aβ42 uptake in N2a-mLRP4-Tless compared to N2a-pcDNA3 cells” value turn out when “FAM-Aβ42: FAM-Aβ42 peptide (23526) from Anaspec; amyloid-β 42 with carboxyfluorescein at the N-terminal region” was run?
A: similar
